Data on 27 compounds can be found in patent US11214554B2, “Indoleamine 2,3-dioxygenase inhibitor, method for preparation and use thereof” (NANJING HUAWE MEDICINE TECHNOLOGY GROUP CO., LTD., priority 2018, dated 2022).

pIC50: −log10 of the molar value. Read-outs that look alike come from different tables or passages of the source.

One data set concerns the target IDO1 enzyme (Homo sapiens (Human), UniProt P14902). As to the kind of experiment: Determination of the IDO1 inhibitory activity of compounds (enzyme assay, absorbance at 480 nm). It is filed as biochemical. The settings on record: 50 nM IDO1, 37° C., 30 minutes, pH 6.5, 1% DMSO; average of two tests. The protocol: 100 mM PBS containing 400 μM L-tryptophan, 20 mM ascorbate, 20 μM methylene blue and 1000 U/ml catalase, pH 6.5
All compounds were dissolved with DMSO. During the assay, each compound was diluted to a concentration as needed. The compound of each concentration was added to multi-wells, and the final concentration of DMSO was controlled at 1%.
a.) the reaction mixture was prepared by adding 50 nM IDO1 and the desired concentration of the test compound to 100 μL of IDO1 assay buffer. IDO1 and assay buffer need to be preheated to 37° C.
b.) The mixture was reacted in a constant temperature water tank at 37° C. for 30 minutes.
c.) 50 μL of 30% trichloroacetic acid was added.
d.) The above mixture was reacted in a constant temperature water tank at 52° C. for 30 minutes.
e.) The reaction mixture was centrifuged at 12000 g for 10 minutes at room temperature.
f.) 100 μL of the obtained supernatant and 100 μL of Ehrlich reagent were mixed.
g.) the absorbance at 480 nm was measured using an M5 microplate reader.
4. Data Analysis Inhibition rate=(ODpostive−ODsample)/(ODpositive−ODnegative)*100% 5. Results and Discussion
In this experiment, the inhibitory activity of the test compounds on the IDO1 enzyme was tested. Compounds of each diluted concentration were tested in multi-wells. The final concentration of the reaction system in DMSO was controlled to 1%. The inhibition rate was tested twice, and the average value was taken.

Data set [1] concerns the target IDO protease in highly expressed HeLa cells (Homo sapiens (Human), UniProt P14902). As to the kind of experiment: Inhibitory activity of compounds on IDO protease in highly expressed HeLa cells. It is filed as cell-based. The settings on record: highly expressed HeLa cell line. The protocol: This method was used to determine the inhibitory effect of the compounds of the invention on the inhibitory activity of IDO protease in highly expressed HeLa cells.
Highly expressed HeLa cell line
a.) 50 μL of 30% trichloroacetic acid was added.
b.) The mixture was reacted in a constant temperature water tank at 52° C. for 30 minutes.
c.) The above mixture was centrifuge at 12,000 g for 10 minutes at room temperature.
d.) 100 μL of the supernatant was mixed with 100 μL of Ehrlich reagent.
e.) the absorbance was measured at 480 nm using an M5 microplate reader.
The software Graphpad Prism 5 was used with the calculation formula of log(inhibitor) vs. normalized response to perform IC50 curve fitting and the IC50 value was calculated.

Data set [2] is described as follows: Pharmacokinetic evaluation in SD rats after oral administration by single gavage. The class given is in vivo. The settings on record: rat, PO 75 mg/kg, plasma; for half-life: read-out: t½ (converted). The protocol:
1. Experimental animals: 100 (half male and half female) SPF grade SD rats were purchased from Shanghai Cypre-Bikai Experimental Animal Co., Ltd. Among them, 72 medically qualified and healthy SD rats without abnormality (half male and half female) were used for the study. 2. Animal Administration
72 SD rats (half male and half female) were tested according to the following table. The drug samples were stirred at least 10 minutes before administration.
Blood samples were obtained through the jugular vein puncture, and each sample was collected for about 0.25 mL and added with heparin sodium for anticoagulation. The blood sampling was performed at time points as follows:
for oral administration group, before administration, 0.25 h, 0.5 h, 1 h, 2 h, 4 h, 6 h, 8 h, 24 h after administration.
After collection, the blood samples were placed on ice and the plasma was separated by centrifugation (centrifugation conditions: 8000 rpm, 6 minutes, 2-8° C.). The collected plasma was stored at −80° C. before analysis. Plasma samples were analyzed by the analysis department of the experimental institution using LC-MS/MS for the content of the test compound in the rat plasma. The LLOQ of the detection substance was 1 ng/mL.
According to the blood plasma concentration data of the drugs, the pharmacokinetic calculation software WinNonlin5.2 non-compartmental model was used to calculate the pharmacokinetic parameters AUC0-t, Cmax, Tmax, T1/2 d and other parameters of the test samples and their average value and standard deviation.
When pharmacokinetic parameters were calculated for samples with lower concentration than the lower limit of quantification, samples taken before the curve reached Cmax should be calculated with zero value, and samples taken after the curve reached Cmax should be calculated with non-quantitative (BLQ).
The main pharmacokinetic parameters of compounds in SD rats plasma after oral administration by single gavage

Sequence of IDO protease in highly expressed HeLa cells (P14902 whole entry): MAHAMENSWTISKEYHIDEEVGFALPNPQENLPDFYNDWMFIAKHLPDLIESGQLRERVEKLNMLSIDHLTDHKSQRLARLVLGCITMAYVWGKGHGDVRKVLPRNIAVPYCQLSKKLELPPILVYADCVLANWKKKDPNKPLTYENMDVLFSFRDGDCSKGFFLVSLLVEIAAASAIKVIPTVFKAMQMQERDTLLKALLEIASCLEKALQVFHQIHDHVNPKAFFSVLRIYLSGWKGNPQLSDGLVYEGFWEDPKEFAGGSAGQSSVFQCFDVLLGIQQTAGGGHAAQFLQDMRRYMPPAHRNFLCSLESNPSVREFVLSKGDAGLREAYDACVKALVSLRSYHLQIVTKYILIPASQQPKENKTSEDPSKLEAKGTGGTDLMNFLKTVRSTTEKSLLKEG
Sequence of IDO1 enzyme (P14902 whole entry, species assumed): as the sequence (P14902 whole entry) above

`O/N=C(\Nc1ccc(F)c(C(F)(F)F)c1)c1nonc1NOCCc1cccs1` [Compound I-7]: the pIC50 (commonly the negative decadic logarithm of the IC50, by convention in mol/L) at IDO1 enzyme is 6.95.
Turning to `Cc1ccc(CCONc2nonc2/C(=N/O)Nc2ccc(F)c(Br)c2)cc1` [Compound I-8], at IDO1 enzyme, the negative-log IC50 (pIC50) is 7.03.
The same measure, in the same setting: the figure for `O=C(NCCONc1nonc1/C(=N/O)Nc1ccc(F)c(C(F)(F)F)c1)c1ccc(F)cc1` [Compound I-9] is 7.07; for `Nc1ncc(C(=O)NCCONc2nonc2/C(=N/O)Nc2ccc(F)c(Cl)c2)s1` [Compound I-10] it is 7.05.
The same measure, in the same setting: the figure for `CS(=O)(=O)NCCONc1nonc1/C(=N/O)Nc1ccc(F)c(F)c1` [Compound I-13] is 6.91; for `OCCONc1nonc1/C(=N/O)Nc1ccc(F)c(Br)c1` [Compound I-14] it is 7.09; for `OCCCONc1nonc1/C(=N/O)Nc1ccc(F)c(Cl)c1` [Compound I-15] it is 7.03.
Take `NC(CCONc1nonc1/C(=N/O)Nc1ccc(F)c(Br)c1)C(=O)O` (stereo not drawn) [Compound I-16]: the pIC50 in data set [1] was 7.46; against IDO1 enzyme it was 7.38.
`O=C(O)CCCONc1nonc1/C(=N/O)Nc1ccc(F)c(Br)c1` [Compound I-18] had a pIC50 on IDO1 enzyme of 6.74.
For the compound `NS(=O)(=O)NC1(CONc2nonc2/C(=N/O)Nc2ccc(F)c(Br)c2)CC1` [Compound I-20], the pIC50 in data set [1] is 8.10. In data set [2] (female SD rats), the area under the curve AUC(0-inf) (usually the area under the concentration-time curve extrapolated to infinity) was 1990 ng·h/mL; the Cmax – broadly, the maximum level reached in the sampled fluid or tissue – is 3330 ng/mL; the Tmax – broadly, the time from dosing to the highest level – came to 0.5 h; the half-life was 1.42 h. Further, in data set [2] (male SD rats), the AUC(0-inf) amounted to 2390 ng·h/mL, the peak concentration (Cmax) worked out at 4240 ng/mL, the time of peak concentration (Tmax) amounted to 1 h and the half-life is 1.98 h. Further, on IDO1 enzyme, the pIC50 was 7.74.
At IDO1 enzyme, `COC(=O)C(CCONc1nonc1/C(=N/O)Nc1ccc(F)c(F)c1)NS(N)(=O)=O` (stereo not drawn) [Compound I-22] gave a pIC50 of 7.19.
For the compound `NS(=O)(=O)NC(CO)CONc1nonc1/C(=N/O)Nc1ccc(F)cc1` (stereo not drawn) [Compound I-23], the pIC50 was 7.42 in data set [1] and 7.44 on IDO1 enzyme.
With `NS(=O)(=O)NCCONc1nonc1/C(=N/O)Nc1ccc(F)c(Br)c1` [Compound I-24], in data set [1], the pIC50 was 8.30. Further, in data set [2] (female SD rats), the AUC(0-inf) was 18700 ng·h/mL, the Cmax was found to be 7240 ng/mL, the Tmax worked out at 1 h and the half-life was 2.34 h. Also, in data set [2] (male SD rats), the AUC(0-inf) stood at 20700 ng·h/mL, the Cmax turned out to be 8760 ng/mL, the time of peak concentration (Tmax) worked out at 1 h and the half-life is 2.12 h. The compound further gave a pIC50 at IDO1 enzyme of 8.10.
At IDO1 enzyme, `NS(=O)(=O)NCCONc1nonc1/C(=N/O)NCc1ccccc1` [Compound I-25] showed a pIC50 of 7.17.
As for `NS(=O)(=O)NCCCCONc1nonc1/C(=N/O)Nc1ccc(F)c(Br)c1` [Compound I-26], the pIC50 against IDO1 enzyme is 7.04.
As for `CC(N/C(=N\O)c1nonc1NOCCNS(N)(=O)=O)c1ccccc1` (stereo not drawn) [Compound I-27], the results for the pIC50 (in data set [1]; at IDO1 enzyme) were 7.59 and 7.38, respectively.
`NS(=O)(=O)NC1CCC(ONc2nonc2/C(=N/O)Nc2ccc(F)c(F)c2)CC1` (stereo not drawn) [Compound I-31] had a pIC50 at IDO1 enzyme of 7.38.
Regarding `O/N=C(\Nc1ccc(F)c(F)c1)c1nonc1NOC1CCC(O)CC1` (stereo not drawn) [Compound I-35], the pIC50 on IDO1 enzyme is 7.03.
Same read-out and setting: the figure for `O/N=C(\Nc1ccc(F)c(F)c1)c1nonc1N1CCCCO1` [Compound I-38] is 7.11; for `O/N=C(\Nc1ccc(F)c(F)c1)c1nonc1NOC1CCCCO1` (stereo not drawn) [Compound I-39] it is 6.85.
In the case of `O=C(NCCONc1nonc1/C(=N/O)Nc1ccc(F)c(Br)c1)Nc1cc(F)cc(F)c1` [Compound I-40], in data set [2] (female SD rats), the AUC(0-inf) was 7540 ng·h/mL, the concentration peaked (Cmax) at 4240 ng/mL, the time of peak concentration (Tmax) was 1 h and the half-life was 1.45 h. Further, in data set [2] (male SD rats), the AUC(0-inf) came to 8250 ng·h/mL, the peak level (Cmax) was 4760 ng/mL, the Tmax worked out at 1 h and the half-life is 1.67 h.
In the case of `O/N=C(\Nc1ccc(F)c(Br)c1)c1nonc1NOCCONc1nonc1/C(=N/O)Nc1ccc(F)c(Br)c1` [Compound I-43], the figures for the pIC50 (in data set [1]; at IDO1 enzyme) were 7.42 and 7.46, respectively.
For the compound `NS(=O)(=O)NOCCONc1nonc1/C(=N/O)Nc1ccc(F)c(Br)c1` [Compound I-44], at IDO1 enzyme, the pIC50 is 7.11.
At IDO1 enzyme, `O=C1NC(=O)C2(CCC(ONc3nonc3/C(=N/O)Nc3ccc(F)c(F)c3)CC2)N1` (stereo not drawn) [Compound I-49] showed a pIC50 of 7.18.
Turning to `O=C(CCC1CCC(ONc2nonc2/C(=N/O)Nc2ccc(F)c(F)c2)CC1)Nc1ccc(F)cc1` (stereo not drawn) [Compound I-50], the pIC50 in data set [1] is 7.68; on IDO1 enzyme, 7.55.
`COC(=O)CSNc1nonc1/C(=N/O)Nc1ccc(F)cc1` [Compound I-51]: the pIC50 against IDO1 enzyme was 7.08.
With `NS(=O)(=O)NCCNc1nonc1C(=NO)Nc1ccc(F)c(Br)c1` [INCB024360, Epacadostat, reference compound], in data set [2] (female SD rats), the AUC(0-inf) was found to be 11300 ng·h/mL, the Cmax stood at 3410 ng/mL and the half-life is 2.51 h. Also, in data set [2] (male SD rats), the AUC(0-inf) stood at 12200 ng·h/mL, the Cmax turned out to be 3940 ng/mL, the Tmax was 0.5 h and the half-life is 2.24 h.
